Measurements reported in patent US20110269763A1, “CRTH2 receptor ligands for medicinal uses” (7TM Pharma A/S, priority 2004, published 2011).
pIC50: −log10 of the molar value.

Columns and labels:
human CRTH2 [1] = target: T1, human CRTH2 (Homo sapiens, UniProt Q9Y5Y4, V204A); test: Functional antagonist BRET assay on HEK293 cells stably expressing human CRTH2-Rluc and GFP2-β-arr2; type: cell-based; design: expressed in transfected cells; settings: BRET, antagonist incubated 15 minutes prior to agonist; read-out: Antag. IC50
T1 sequence (Q9Y5Y4 1-395 V204A): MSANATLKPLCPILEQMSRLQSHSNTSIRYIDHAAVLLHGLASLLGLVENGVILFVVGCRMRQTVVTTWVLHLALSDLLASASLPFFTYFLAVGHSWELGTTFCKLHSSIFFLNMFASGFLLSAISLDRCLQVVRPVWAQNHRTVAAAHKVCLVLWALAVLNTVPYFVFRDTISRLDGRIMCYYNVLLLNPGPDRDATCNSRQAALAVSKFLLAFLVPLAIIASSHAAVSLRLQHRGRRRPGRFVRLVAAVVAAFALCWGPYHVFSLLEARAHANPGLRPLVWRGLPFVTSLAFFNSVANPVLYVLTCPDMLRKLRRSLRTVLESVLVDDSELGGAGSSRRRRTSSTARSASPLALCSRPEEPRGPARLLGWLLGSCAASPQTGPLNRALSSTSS
Description: (§1) Generation/origin of the cDNA Constructs. The coding sequence of the human CRTH2 receptor (genbank accession no NM_004778) was amplified by PCR from a human hippocampus cDNA library and inserted into the pcDNA3.1(+) expression vector (invitrogen) via 5′ HindIII and 3′ EcoRI. To generate a CRTH2-Renilla luciferase (CRTH2-Rluc) fusion protein, the CRTH2 coding sequence without a STOP codon and Rluc were amplified, fused in frame by PCR and subcloned into the pcDNA3.1(+)Zeo expression vector (invitrogen). Human β-arrestin2 (β-arr2) N-terminally tagged with GFP^2 (βarr2-GFP^2) and Renilla luciferase were purchased from BioSignal Packard Inc, (Montreal, Canada). The sequence identity of the construct was verified by restriction endonuclease digests and sequencing in both directions on an ABI Prism (Applied Biosystems, Foster City, Calif.).
(§2) Cell Culture and Transfection. COS-7 cells were grown in Dulbecco's modified Eagle's medium (DMEM) 1885 supplemented with 10% fetal bovine serum, 100 units/ml penicillin, […] streptomycin, and kept at 37° C. in a 10% CO2 atmosphere. HEK293 cells were maintained in Minimum Essential medium (MEM) supplemented with 10% (v/v) heat inactivated fetal calf serum (HIFCS), 2 mM Glutamax™-I, 1% non essential amino acids (NEAA), 1% sodium pyruvate and 10 μg/ml gentamicin. For binding experiments, COS7 cells were transiently transfected with the CRTH2 receptor using a calcium phosphate-DNA coprecipitation method with the addition of chloroquine (as described by Holst et al., 2001↓). To perform the functional Bioluminescence Resonance Energy Transfer (BRET) assays, a HEK293 cell clone stably expressing βarr2-GFP^2 and CRTH2-Rluc was generated (CRTH2-HEK293 cells).
BRET assay. Functional BRET assays were performed on HEK293 cells stably expressing human CRTH2-Rluc and GFP^2-β-arr2. Prior to their use in the BRET assay cells were detached and re-suspended in D-PBS with 1000 mg/L L-Glucose at a density of 2×10^6 cells/mL. DeepBlueC™ was diluted to 50 μM in D-PBS with 1000 mg/L L-Glucose (light sensitive). 100 μL of cell suspension was transferred to wells in a 96-well microplate (white OptiPlate) and placed in the Mithras LB 940 instrument (BERTHOLD TECHNOLOGIES, Bad Wildbad, Germany). 12 μL/well agonist was then injected by injector 1 and 10 μL/well DeepBlueC™ was injected simultaneously by injector 2. Five seconds after the injections the light output from the well was measured sequentially at 400 nm and 515 nm, and the BRET signal (mBRET ratio) was calculated by the ratio of the fluorescence emitted by GFP^2-β-arr2 (515 nm) over the light emitted by the receptor-Rluc (400 nm). Antagonists were added before placing the microplates into the Mithras LB 940 and allowed to incubate for 15 minutes prior to the addition of agonist and DeepBlueC™. Compounds were dissolved in DMSO and the final DMSO concentration was kept constant at 1% in the assay.
(§3) Curve analysis was performed with the GraphPadPrism software 3.0 (Graphpad Prism Inc., San Diego, USA) and IC50 values were calculated as a measure of the antagonistic potencies.

human CRTH2 [2] = target: T1, human CRTH2; test: Receptor binding assay: [3H]PGD2 competition binding on whole COS-7 cells transiently transfected with CRTH2 (also stable HEK293 cells); design: expressed in transfected cells; host or cells: COS-7 (transient, calcium phosphate); settings: competition with 0.1 nM [3H]PGD2, whole cells, 3 h at 4° C.
Description: as §1, §2
Binding assay. 24 h after transfection COS-7 cells were seeded into 96 well plates at a density of 30.000 cells/well. Competition binding experiments on whole cells were then performed about 18-24 h later using 0.1 nM [^3H]PGD2 (NEN, 172 Ci/mmol) in a binding buffer consisting of HBSS (GIBCO) and 10 mM HEPES. Competing ligands were diluted in DMSO which was kept constant at 1% (v/v) of the final incubation volume. Total and nonspecific binding were determined in the absence and presence of 10 μM PGD2. Binding reactions were routinely conducted for 3 h at 4° C. and terminated by 2 washes (100 μl each) with ice cold binding buffer. Radioactivity was determined by liquid scintillation counting in a TOPCOUNTER (Packard) following over night incubation in Microscint 20. Stable HEK293 cells were seeded at a density of 30.000 cells/well 18-24 h prior to the binding assay which was performed essentially as described for COS7 cells above. Determinations were made in duplicates.
as §3

Compound	pIC50 (human CRTH2 [1])	pIC50 (human CRTH2 [2])
O=C(O)COc1ccc(Br)cc1C(=O)c1cnn(-c2ccc(Cl)cc2Cl)c1 [D26, 4-Bromo-2-[1-(2,4-dichlorophenyl)-1H-pyrazole-4-carbonyl]phenoxyacetic acid]	> 6.30	> 6.30
O=C(O)COc1ccc([N+](=O)[O-])cc1C(=O)c1cnn(-c2ccccc2Cl)c1 [D27, 4-Nitro-2-[1-(2-chlorophenyl)-1H-pyrazole-4-carbonyl]phenoxyacetic acid]	> 6.30	> 6.30
O=C(O)COc1ccc([N+](=O)[O-])cc1C(=O)c1cnn(-c2ccccc2Br)c1 [D28, 4-Nitro-2-[1-(2-bromophenyl)-1H-pyrazole-4-carbonyl]phenoxyacetic acid]	> 6.30	> 6.30
O=C(O)COc1ccc(Br)cc1C(=O)c1cnn(-c2c(Cl)cccc2Cl)c1 [D29, 4-Bromo-2-[1-(2,6-dichlorophenyl)-1H-pyrazole-4-carbonyl]phenoxyacetic acid]	> 6.30	> 6.30
CCc1ccc(OCC(=O)O)c(C(=O)c2cnn(-c3ccccc3Br)c2)c1 [D30, 4-Ethyl-2-[1-(2-bromophenyl)-1H-pyrazole-4-carbonyl]phenoxyacetic acid]	> 6.30	> 6.30
CC(C)c1ccc(OCC(=O)O)c(C(=O)c2cnn(-c3ccccc3Cl)c2)c1 [D31, 2-[1-(2-Chlorophenyl)-1H-pyrazole-4-carbonyl]-4-isopropylphenoxyacetic acid]	> 6.30	> 6.30
O=C(O)COc1ccc(Br)cc1C(=O)c1cnn(-c2ccc(OC(F)(F)F)cc2)c1 [D32]	> 6.30	> 6.30
O=C(O)COc1ccc(Br)cc1C(=O)c1cnn(-c2ccc(Br)cc2Br)c1 [D33, 4-Bromo-2-[1-(2,4-dibromophenyl)-1H-pyrazole-4-carbonyl]phenoxyacetic acid]	> 6.30	> 6.30
O=C(O)COc1ccc(Br)cc1C(=O)c1cnn(-c2ccc(Br)cc2Cl)c1 [D34, 4-Bromo-2-[1-(4-bromo-2-chlorophenyl)-1H-pyrazole-4-carbonyl]phenoxyacetic acid]	> 6.30	> 6.30
O=C(O)COc1ccc(Br)cc1C(=O)c1cnn(-c2c(Cl)cc(Cl)cc2Cl)c1 [D35, 4-Bromo-2-[1-(2,4,6-trichlorophenyl)-1H-pyrazole-4-carbonyl]phenoxyacetic acid]	> 6.30	> 6.30
COc1ccc(OCC(=O)O)c(C(=O)c2cnn(-c3ccccc3)c2)c1 [D36, 4-Methoxy-2-[1-phenyl-1H-pyrazole-4-carbonyl]phenoxyacetic acid]	5.30 to 6.30	> 6.30
CC(Oc1ccc(Br)cc1C(=O)c1cnn(-c2ccccc2Cl)c1)C(=O)O (stereo not shown) [D38, 2-{4-Bromo-2-[1-(2-chlorophenyl)-1-H-pyrazole-4-carbonyl]phenoxy}propionic acid]	> 6.30	> 6.30
CC(Oc1ccc(Br)cc1C(=O)c1cnn(-c2c(Cl)cccc2Cl)c1)C(=O)O (stereo not shown) [D39, 2-{4-Bromo-2-[1-(2,6-dichlorophenyl)-1H-pyrazole-4-carbonyl]phenoxy}propionic acid]	> 6.30	> 6.30
N#Cc1ccccc1-n1cc(C(=O)c2cc(Br)ccc2OCC(=O)O)cn1 [D40, {4-Bromo-2-[1-(2-cyano-phenyl)-1H-pyrazole-4-carbonyl]phenoxy}acetic acid]	> 6.30	> 6.30
CCOc1ccccc1-n1cc(C(=O)c2cc(Br)ccc2OCC(=O)O)cn1 [D41, {4-Bromo-2-[1-(2-ethoxyphenyl)-1H-pyrazole-4-carbonyl]phenoxy}acetic acid]	> 6.30	> 6.30
CCc1cc(Br)ccc1-n1cc(C(=O)c2cc(Br)ccc2OCC(=O)O)cn1 [D42, {4-Bromo-2-[1-(4-bromo-2-ethylphenyl)-1H-pyrazole-4-carbonyl]phenoxy}acetic acid]	> 6.30	> 6.30
O=C(O)COc1ccc(Br)cc1C(=O)c1cnn(-c2ccccc2Oc2ccccc2)c1 [D43, {4-Bromo-2-[1-(2-phenoxyphenyl)-1H-pyrazole-4-carbonyl]phenoxy}acetic acid]	> 6.30	> 6.30
